This assay has as its system CD11b+ monocytes. Put plainly: Peripheral blood CD11b+ monocyte number by flow cytometry after single injection. The following applies: for CD11b+ monocyte number in peripheral blood: 24 hrs after single injection; for circulating monocytes in peripheral blood: intramuscular injection; for circulating monocytes in peripheral blood / total monocytes in the peripheral blood: 24 hrs, normal count 5%; for total monocytes in the peripheral blood: intraperitoneal route. In kind it is in vivo, C57BL/6 mice. The text has this: Monocytes are the peripheral blood precursor cells of microglia (Rezaie, P., et al 1999. Microglia in the human fetal spinal cord—patterns of distribution, morphology and phenotype. Brain Res. Dev. Brain Res. 115:71-81: Mildner et al Nat Neurosci. 2007 December; 10(12):1544-53. Epub 2007 Nov. 18. PubMed PMID: 18026096.). During embryonic development, microglia populate the CNS from myeloid lineage precursors in the bone marrow and these cells are circulating in the peripheral blood before becoming macrophages in their infiltrating tissues, such as microglia are for the brain. Markers such as CD11b and Ly6C are immunologicals markers that are present on peripheral blood monocytes and persist when they are infiltrating the brain (Mildner et al., 2007 infra, Lebson L, et al Trafficking CD11b-positive blood cells deliver therapeutic genes to the brain ofamyloid-depositing transgenic mice. J Neurosci. 2010 Jul. 21; 30(29):9651-8. PubMed PMID: 20660248.). To investigate whether 3D MPL containing adjuvants and s are contributing to induce the number of monocytes in the peripheral blood, we have performed a single injection of those molecules and measure after 24 hrs (post injection) the CD11b+ monocytes number by a flow cytometry method (Mildner A, et al Microglia in the adult brain arise from Ly-6ChiCCR2+ monocytes only under defined host conditions. Nat Neurosci. 2007 December; 10(12):1544-53. Epub 2007 Nov. 18. PubMed PMID: 18026096). As described in FIG. 3, we are showing an increase of CD11b+ monocyte number having that phenotypic composition of markers :CD11b+, lineage cocktail negative (CD3-, B220-, NK1.1-,Ly6C-) after the injection of 3D MPL or AS15 or AS01B or CRX527 or CRX601. Comparing to a normal monocyte number count in the peripheral blood, which is 5% whereas the intramuscular (i.m.) injection of AS01B, and AS15 are showing an increase of the number of circulating monocytes to up to 20%. Moreover, the injection of 3D MPL or CRX601 or CRX601 using the intraperitoneal route is also showing a 22% of total monocytes in the peripheral blood.
Peripheral blood was drawn from C57BL/6 mice via cardiac puncture with lithium-heparin as anticoagulant, 24-Hour after injection of the TLR adjuvants. Red blood cell lysis was performed twice on pooled blood with Ammonium Chloride-based Buffer (Sigma, Steinheim, Germany) and cells were counted with the EasyCount™ System (Immunicon). After one washing step, 500,000 cells were incubated with Rat anti-Mouse CD16/CD32 (BD Fc Block™ by BD Biosciences) for 10 min. on ice and cells were further incubated for 30 min. with a combination of the following directly conjugated antibodies at their pre-determined optimal concentration as described by Mildner et al., 2007): PerCP labeled-Streptavidin, PE-Hamster anti-Mouse CD3, Rat anti-Mouse CD45R/B220, Rat anti-Mouse Ly-6G, Mouse anti-Mouse NK1.1 APC-conjugated Rat anti-Mouse CD11b, PE-Cy7-conjugated Hamster anti-Mouse CD11c, FITC-Rat Anti-Mouse Ly-6C (all from BD Biosciences) and Pacific Blue™ Rat anti-Mouse CD62L (BioLegend, San Diego, Calif.). Cells were finally washed three times and fixed for 15 min. with a 2% paraformaldehyde solution in PBS. Fluorescence minus one (FMO) controls were always included in the assays for fluorescent compensation setting.
Samples were acquired on a flow cytometer (BD FACSCanto II) and data analyzed with the FACSDiva software (BD Biosciences).
Monocytes were identified by their Side/Forward scatter properties and gated as CD3-/CD45R/B220-/Ly-6G-/NK1.1-(Lineage-)/CD11b+ cells. CD11b+ monocytes frequency was reported as a percentage of the total cells excluding debris.
24-Hour after injection of the TLR adjuvants, peripheral blood was drawn from C57BL/6 mice via cardiac puncture with lithium-heparin as anticoagulant. Red blood cell lysis was performed twice on pooled blood with Ammonium Chloride-based Buffer (Sigma, Steinheim, Germany) and cells were counted with the EasyCount™ System (Immunicon). […]
In general terms: A flow cytometer gives signals particle by particle.

On to `CCCCCCCCCCC[C@H](CC(=O)N[C@H]1[C@H](OC[C@H](NC(=O)C[C@@H](CCCCCCCCCCC)OCCCCCCCCCC)C(=O)O)O[C@H](CO)[C@@H](OP(=O)(O)O)[C@@H]1OC(=O)C[C@@H](CCCCCCCCCCC)OCCCCCCCCCC)OCCCCCCCCCC` [CRX601], for which the “CD11b+ monocyte number in peripheral blood” value (shortened to “CD11b+ monocyte number”) was “increase”, the “circulating monocytes in peripheral blood” value is recorded as “up to 12%” and the “total monocytes in the peripheral blood” value is given as 22%. Moreover, under “20 μg dose i.m.”, the monocyte count effect entry was “down modulated”. The “amount enough to trigger an increase of the monocyte count” value (single i.m. injection, six doses 0.2 to 20 μg) came to 1 µg.

With `CCCCCCCCCCC[C@H](CC(=O)N[C@H]1[C@H](OC[C@H](NC(=O)C[C@@H](CCCCCCCCCCC)OC(=O)CCCCCCCCC)C(=O)O)O[C@H](CO)[C@@H](OP(=O)(O)O)[C@@H]1OC(=O)C[C@@H](CCCCCCCCCCC)OC(=O)CCCCCCCCC)OC(=O)CCCCCCCCC` [CRX527], the “CD11b+ monocyte number” value is reported as “increase”.

As to “3-O-desacyl-4′-monophosphoryl lipid A [3D MPL]”, the “CD11b+ monocyte number” value is “increase”, the “circulating monocytes in peripheral blood” value is on record as ≤ 13% and the “total monocytes in the peripheral blood” value is on record as 22%. Further, where the note is “5 μg dose i.m., 24 hours”, the “CD11b+ monocyte in the peripheral blood” value is recorded as “double increase”. The “peripheral blood monocyte count” value (50 μg dose i.m., 24 hours) is reported as “drop”.

For the origin of these results see patent US20130216614A1, “IMMUNOGENIC COMPOSITIONS AND METHODS FOR TREATING NUEROLOGIC DISORDERS” (Glaxosmithkline Biologicals S.A., priority 2010, published 2013).
